Results on 26 compounds are retold here after patent US10988477B2 (Merck Patent GmbH, priority 2018, dated 2021).

In one assay the target is GCN2 kinase (Homo sapiens, UniProt Q9P2K8). Put plainly: GCN2 enzyme inhibition assay (Transcreener ADP2 fluorescence polarization). As to conditions: compounds of Formula II; 280 μM ATP, 4 nM GCN2 kinase. It is filed as biochemical. A digest of the protocol: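 ADP formation read by Transcreener FP after a 1 h, 25 °C kinase reaction containing 280 μM ATP, 200 μM (RS)7 substrate and 4 nM GCN2, pH 7.5 Tris buffer. Compounds (0–8 μM final) were added 10 min before ATP. Percent inhibition gave IC50 and apparent Ki via tight-binding fit.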
GCN2 kinase, sequence (Q9P2K8 whole entry): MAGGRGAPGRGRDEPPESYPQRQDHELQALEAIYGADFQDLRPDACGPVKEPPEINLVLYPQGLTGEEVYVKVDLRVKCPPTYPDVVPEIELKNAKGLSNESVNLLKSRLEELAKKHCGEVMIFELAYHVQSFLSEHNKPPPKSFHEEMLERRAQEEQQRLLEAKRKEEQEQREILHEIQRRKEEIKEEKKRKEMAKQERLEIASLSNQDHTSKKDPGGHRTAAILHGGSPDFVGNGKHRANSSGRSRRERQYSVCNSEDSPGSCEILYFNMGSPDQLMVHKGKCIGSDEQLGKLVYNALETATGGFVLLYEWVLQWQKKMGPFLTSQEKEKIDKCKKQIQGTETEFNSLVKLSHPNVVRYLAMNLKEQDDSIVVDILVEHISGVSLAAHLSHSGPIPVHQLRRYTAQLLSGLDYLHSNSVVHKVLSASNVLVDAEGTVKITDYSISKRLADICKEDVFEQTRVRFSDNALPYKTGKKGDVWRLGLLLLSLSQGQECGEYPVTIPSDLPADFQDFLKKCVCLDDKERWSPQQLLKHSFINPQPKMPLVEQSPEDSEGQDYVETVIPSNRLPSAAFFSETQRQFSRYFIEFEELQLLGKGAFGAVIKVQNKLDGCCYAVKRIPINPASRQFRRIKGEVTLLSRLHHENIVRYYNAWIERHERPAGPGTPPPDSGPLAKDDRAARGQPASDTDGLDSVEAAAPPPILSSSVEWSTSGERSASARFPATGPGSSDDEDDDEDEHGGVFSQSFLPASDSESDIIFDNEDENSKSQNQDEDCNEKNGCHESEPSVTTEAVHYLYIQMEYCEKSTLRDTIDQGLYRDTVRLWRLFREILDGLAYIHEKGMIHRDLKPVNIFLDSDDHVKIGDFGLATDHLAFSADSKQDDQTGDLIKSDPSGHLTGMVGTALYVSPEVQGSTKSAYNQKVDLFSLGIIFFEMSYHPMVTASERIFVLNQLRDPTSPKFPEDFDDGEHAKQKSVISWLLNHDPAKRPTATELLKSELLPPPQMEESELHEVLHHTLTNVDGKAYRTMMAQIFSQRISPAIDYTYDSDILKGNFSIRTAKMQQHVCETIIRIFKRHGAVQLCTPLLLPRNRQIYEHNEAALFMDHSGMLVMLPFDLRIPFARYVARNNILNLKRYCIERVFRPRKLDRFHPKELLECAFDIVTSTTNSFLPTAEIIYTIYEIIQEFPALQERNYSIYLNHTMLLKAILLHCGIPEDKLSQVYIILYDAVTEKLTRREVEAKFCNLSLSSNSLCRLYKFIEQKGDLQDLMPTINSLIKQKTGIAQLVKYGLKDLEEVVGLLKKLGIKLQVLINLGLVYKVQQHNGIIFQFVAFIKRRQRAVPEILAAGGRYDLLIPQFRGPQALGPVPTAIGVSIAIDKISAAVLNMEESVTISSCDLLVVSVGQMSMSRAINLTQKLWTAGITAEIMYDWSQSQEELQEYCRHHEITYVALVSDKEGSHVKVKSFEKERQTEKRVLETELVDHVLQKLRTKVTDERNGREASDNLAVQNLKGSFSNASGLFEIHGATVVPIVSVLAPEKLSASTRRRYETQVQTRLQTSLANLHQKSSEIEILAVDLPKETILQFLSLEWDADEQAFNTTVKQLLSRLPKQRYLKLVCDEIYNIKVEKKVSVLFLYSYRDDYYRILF
(In fluorescence polarisation assays a small probe gives low polarisation when free and higher when bound to something large.)

Assay [1] deals with intracellular GCN2 (phosphorylation of the GCN2 substrate eIF2α) (Homo sapiens, UniProt Q9P2K8). Kind of assay: GCN2 cellular inhibition assay (AlphaScreen SureFire P-eIF2α Ser51, borrelidin-treated U2OS cells). The following applies: compounds of Formula II; biomarker assay, phosphorylated eIF2α Ser51 in borrelidin-treated U2OS cells. The format is cell-based. A digest of the protocol:
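U2OS, overnight attach; cpd 4-fold serial dil. from 40 μM final; borrelidin 10 μM, 1 h 37 °C/5% CO2; lyse; AlphaScreen P-eIF2α Ser51 (acceptor 2 h, donor overnight, RT, dark); % inhib. vs borrelidin-only.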
A general note: Alpha assays give light when donor and acceptor beads are brought close together.

The structures appear in SMILES notation.

intracellular GCN2 (phosphorylation of the GCN2 substrate eIF2α), sequence (Q9P2K8 whole entry): as above

The Ki is a measure of affinity in units of concentration, obtained from inhibition or displacement. Read a high Ki as lower affinity. By IC50 is commonly meant the point on the concentration scale where inhibition reaches its midpoint. Low values mean higher potency, high ones lower potency. The compound `CC1CN(c2cc(-c3cnc4ccc(C(F)F)nn34)ncn2)CC(CNS(C)(=O)=O)N1C` (stereo not shown) [II-418, N-((4-(6-(6-(Difluoromethyl)imidazo[1,2-b]pyridazin-3-yl)pyrimidin-4-yl)-1,6-dimethylpiperazin-2-yl)methyl)methanesulfonamide] registered a Ki at GCN2 kinase of 10 to 1000 nM. The IC50 in assay [1] is 500 to 5000 nM.
For `O=S(=O)(N[C@H]1CCCN(c2cc(-c3cnc4ccc(C(F)F)nn34)ncn2)C1)C1COC1` [II-419, (S)—N-(1-(6-(6-(Difluoromethyl)imidazo[1,2-b]pyridazin-3-yl)pyrimidin-4-yl)piperidin-3-yl)oxetane-3-sulfonamide] the same measures were 10 to 1000 nM and 500 to 5000 nM.
In turn, `O=S(=O)(CC1CC1)N[C@H]1CCCN(c2cc(-c3cnc4ccc(C(F)F)nn34)ncn2)C1` [II-420, (S)-1-Cyclopropyl-N-(1-(6-(6-(difluoromethyl)imidazo[1,2-b]pyridazin-3-yl)pyrimidin-4-yl)piperidin-3-yl)methanesulfonamide] yielded an inhibition constant Ki on GCN2 kinase of 10 to 1000 nM. Also, the IC50 in assay [1] lay within 500 to 5000 nM.
For `CCS(=O)(=O)N[C@H]1CCCN(c2cc(-c3cnc4ccc(C(F)F)nn34)ncn2)C1` [II-421, (S)—N-(1-(6-(6-(Difluoromethyl)imidazo[1,2-b]pyridazin-3-yl)pyrimidin-4-yl)piperidin-3-yl)ethanesulfonamide] the same measures were 10 to 1000 nM and 500 to 5000 nM.
The corresponding values for `CNS(=O)(=O)N[C@H]1CCCN(c2cc(-c3cnc4ccc(C(F)F)nn34)ncn2)C1` [II-422, (S)-1-(1-(6-(6-(Difluoromethyl)imidazo[1,2-b]pyridazin-3-yl)pyrimidin-4-yl)piperidin-3-yl)-3-methylsulfuric diamide] are 10 to 1000 nM and under 500 nM.
The compound `CC1CN(C)C(CNS(C)(=O)=O)CN1c1cc(-c2cnc3ccc(C(F)F)nn23)ncn1` (stereo not shown) [II-423, N-((4-(6-(6-(Difluoromethyl)imidazo[1,2-b]pyridazin-3-yl)pyrimidin-4-yl)-1,5-dimethylpiperazin-2-yl)methyl)methanesulfonamide] came in with a Ki on GCN2 kinase of 10 to 1000 nM. The IC50 in assay [1] was over 5000 nM.
Turning to `CC1C(CS(N)(=O)=O)CCCN1c1cc(-c2cnc3ccc(C(F)F)nn23)ncn1` (stereo not shown) [II-424, (1-(6-(6-(Difluoromethyl)imidazo[1,2-b]pyridazin-3-yl)pyrimidin-4-yl)-2-methylpiperidin-3-yl)methanesulfonamide], the Ki on GCN2 kinase was under 10 nM. This compound also gave an IC50 in assay [1] of under 500 nM.
The corresponding values for `CC1C(CS(C)(=N)=O)OCCN1c1cc(-c2cnc3ccc(C(F)F)nn23)ncn1` (stereo not shown) [II-425, ((4-(6-(6-(Difluoromethyl)imidazo[1,2-b]pyridazin-3-yl)pyrimidin-4-yl)-3-methylmorpholin-2-yl)methyl)(imino)(methyl)-λ^6-sulfanone] are 10 to 1000 nM and 500 to 5000 nM.
For `CC1C(CS(C)(=O)=O)OCCN1c1cc(-c2cnc3ccc(C(F)F)nn23)ncn1` (stereo not shown) [II-426, 4-(6-(6-(Difluoromethyl)imidazo[1,2-b]pyridazin-3-yl)pyrimidin-4-yl)-3-methyl-2-((methylsulfonyl)methyl)morpholine] the same measures were 10 to 1000 nM and 500 to 5000 nM.
The corresponding values for `CC1CN(c2cc(-c3cnc4ccc(C(F)F)nn34)ncn2)C(C)C(CNS(C)(=O)=O)N1` (stereo not shown) [II-427, N-((4-(6-(6-(Difluoromethyl)imidazo[1,2-b]pyridazin-3-yl)pyrimidin-4-yl)-3,6-dimethylpiperazin-2-yl)methyl)methanesulfonamide] are under 10 nM and under 500 nM.
For `CS(=O)(=O)NCC1CC(N2CC(F)C2)CN(c2cc(-c3cnc4ccc(C(F)F)nn34)ncn2)C1` (stereo not shown) [II-428, N-((1-(6-(6-(Difluoromethyl)imidazo[1,2-b]pyridazin-3-yl)pyrimidin-4-yl)-5-(3-fluoroazetidin-1-yl)piperidin-3-yl)methyl)methanesulfonamide], on GCN2 kinase, the Ki was 10 to 1000 nM. The compound further showed an IC50 in assay [1] of over 5000 nM.
The corresponding values for `CS(=O)(=O)NCC1CC(N2CC(F)C2)CN(c2cc(-c3cnc4ccc(C(F)F)nn34)ncn2)C1` (stereo not shown) [II-429, N-((1-(6-(6-(Difluoromethyl)imidazo[1,2-b]pyridazin-3-yl)pyrimidin-4-yl)-5-(3-fluoroazetidin-1-yl)piperidin-3-yl)methyl)methanesulfonamide] are 10 to 1000 nM and over 5000 nM.
For `CS(=O)(=O)CC1CCCN(c2cc(-c3cnc4ccc(C(F)F)nn34)ncn2)C1` (stereo not shown) [II-430, 6-(Difluoromethyl)-3-(6-(3-((methylsulfonyl)methyl)piperidin-1-yl)pyrimidin-4-yl)imidazo[1,2-b]pyridazine] the same measures were 10 to 1000 nM and 500 to 5000 nM.
At GCN2 kinase, `CC1C(CNS(C)(=O)=O)C(F)(F)CCN1c1cc(-c2cnc3ccc(C(F)F)nn23)ncn1` (stereo not shown) [II-431, N-((1-(6-(6-(Difluoromethyl)imidazo[1,2-b]pyridazin-3-yl)pyrimidin-4-yl)-4,4-difluoro-2-methylpiperidin-3-yl)methyl)methanesulfonamide] came in with a Ki of under 10 nM. For the same compound, in assay [1], the 50% inhibitory concentration (IC50) is under 500 nM.
On GCN2 kinase, `CC1C(CNS(C)(=O)=O)C(F)(F)CCN1c1cc(-c2cnc3ccc(C(F)F)nn23)ncn1` (stereo not shown) [II-432, N-((1-(6-(6-(Difluoromethyl)imidazo[1,2-b]pyridazin-3-yl)pyrimidin-4-yl)-4,4-difluoro-2-methylpiperidin-3-yl)methyl)methanesulfonamide] had a Ki of under 10 nM. In assay [1], this compound came in with an IC50 of under 500 nM.
The corresponding values for `CC1CC(F)(F)C(CNS(C)(=O)=O)CN1c1cc(-c2cnc3ccc(C(F)F)nn23)ncn1` (stereo not shown) [II-433, N-((1-(6-(6-(Difluoromethyl)imidazo[1,2-b]pyridazin-3-yl)pyrimidin-4-yl)-4,4-difluoro-6-methylpiperidin-3-yl)methyl)methanesulfonamide] are under 10 nM and under 500 nM.
The corresponding values for `CC1CC(F)(F)C(CNS(C)(=O)=O)CN1c1cc(-c2cnc3ccc(C(F)F)nn23)ncn1` (stereo not shown) [II-434, N-((1-(6-(6-(Difluoromethyl)imidazo[1,2-b]pyridazin-3-yl)pyrimidin-4-yl)-4,4-difluoro-6-methylpiperidin-3-yl)methyl)methanesulfonamide] are 10 to 1000 nM and over 5000 nM.
With `O=S(=O)(N[C@H]1CCCN(c2cc(-c3cnc4ccc(C(F)F)nn34)ncn2)C1)C1CNC1` [II-435, (S)—N-(1-(6-(6-(Difluoromethyl)imidazo[1,2-b]pyridazin-3-yl)pyrimidin-4-yl)piperidin-3-yl)azetidine-3-sulfonamide], at GCN2 kinase, the inhibition constant Ki lay in the range of 10 to 1000 nM. For the same compound, the half-inhibitory concentration (IC50) in assay [1] is over 5000 nM.
For `OCC12CC1CN(c1cc(-c3cnc4ccc(C(F)F)nn34)ncn1)C2` (stereo not shown) [II-438, (3-(6-(6-(Difluoromethyl)imidazo[1,2-b]pyridazin-3-yl)pyrimidin-4-yl)-3-azabicyclo[3.1.0]hexan-1-yl)methanol] the same measures were 10 to 1000 nM and 500 to 5000 nM.
The corresponding values for `CS(=O)(=O)NC1(C2CCN(c3cc(-c4cnc5ccc(C(F)F)nn45)ncn3)C2)CC1` (stereo not shown) [II-439, N-(1-(1-(6-(6-(Difluoromethyl)imidazo[1,2-b]pyridazin-3-yl)pyrimidin-4-yl)pyrrolidin-3-yl)cyclopropyl)methanesulfonamide] are 10 to 1000 nM and 500 to 5000 nM.
The corresponding values for `CS(=O)(=O)NCC1CN(c2cc(-c3cnc4ccc(C(F)F)nn34)ncn2)CC(C2CC2)O1` (stereo not shown) [II-440, N-((6-Cyclopropyl-4-(6-(6-(difluoromethyl)imidazo[1,2-b]pyridazin-3-yl)pyrimidin-4-yl)morpholin-2-yl)methyl)methanesulfonamide] are 10 to 1000 nM and 500 to 5000 nM.
On GCN2 kinase, `CS(=O)(=O)NCC1CN(c2cc(-c3cnc4ccc(C(F)F)nn34)ncn2)CC(C2CC2)O1` (stereo not shown) [II-441, N-((6-Cyclopropyl-4-(6-(6-(difluoromethyl)imidazo[1,2-b]pyridazin-3-yl)pyrimidin-4-yl)morpholin-2-yl)methyl)methanesulfonamide] yielded a Ki of 10 to 1000 nM. The IC50 in assay [1] lay within 500 to 5000 nM.
`O=S(=O)(N[C@H]1CCCN(c2cc(-c3cnc4ccc(C(F)F)nn34)ncn2)C1)C1CC1` [II-442, (S)—N-(1-(6-(6-(Difluoromethyl)imidazo[1,2-b]pyridazin-3-yl)pyrimidin-4-yl)piperidin-3-yl)cyclopropanesulfonamide] gave a Ki on GCN2 kinase of 10 to 1000 nM. The IC50 in assay [1] is over 5000 nM.
Consider `CS(=O)(=O)NCC1CN(c2cc(-c3cnc4ccc(C(F)F)nn34)ncn2)CC(C2CC2)O1` (stereo not shown) [II-443, N-((6-Cyclopropyl-4-(6-(6-(difluoromethyl)imidazo[1,2-b]pyridazin-3-yl)pyrimidin-4-yl)morpholin-2-yl)methyl)methanesulfonamide], for which the Ki at GCN2 kinase was under 10 nM. The compound further yielded an IC50 in assay [1] of under 500 nM.
For `CS(=O)(=O)NCC1CN(c2cc(-c3cnc4ccc(C(F)F)nn34)ncn2)CC(C2CC2)O1` (stereo not shown) [II-444, N-((6-Cyclopropyl-4-(6-(6-(difluoromethyl)imidazo[1,2-b]pyridazin-3-yl)pyrimidin-4-yl)morpholin-2-yl)methyl)methanesulfonamide] the same measures were under 10 nM and under 500 nM.
The compound `CC1(NS(C)(=O)=O)CCCN(c2cc(-c3cnc4ccc(C(F)F)nn34)ncn2)C1` (stereo not shown) [II-445, N-(1-(6-(6-(Difluoromethyl)imidazo[1,2-b]pyridazin-3-yl)pyrimidin-4-yl)-3-methylpiperidin-3-yl)methanesulfonamide] showed a Ki on GCN2 kinase of 10 to 1000 nM. In assay [1], the IC50 is over 5000 nM.
